This is an account of results in patent US20140213466A1, “HIGH-THROUGHPUT ASSESSMENT METHOD FOR CONTACT HYPERSENSITIVITY” (Rutgers, The State University of New Jersey, priority 2010, published 2014).

The test system of series [1] is skin tissues (Episkin / Mutz3-LC co-culture). In words: cytokine measurements (27 cytokines) of skin tissues exposed to known sensitizing chemicals, analysed by PCA. In kind it is cell-based, human. The note with it: several chemical concentrations, multiple replicates, comparison IE vs SA. The method, then: We have taken cytokine measurements of skin tissues that were exposed to known sensitizing chemicals. […] Principal component analysis (PCA) was used to reduce the high dimensional data into a lower dimension so that the differences in response from each chemical could be visualized.
Multiple cytokines and growth factors were assessed using the Biorad Bioplex Analyzer. 1 ml supernatants were collected for undifferentiated Mutz3 cells, Day 7 differentiated cells [Mutz3-LC] and Day 9 mature cells [mMutz3-LC]. The supernatants were tested for 27 cytokines with respective standards to detect cytokine secretion levels. Basal media samples were utilized as controls and supplementation with growth factors and cytokines viz. GMCSF, TGF-beta1, TNF-alpha, IL-6, IL1β were taken into account in the calculations. Cytokine secretion levels [pg/ml] were converted to [pg/million cells/day] by normalizing with the cell number for each cell stage of differentiation.
Different doses of SA (Salicylic Acid), IE (Isoeugenol), PPD (Paraphenylenediamine) and DNCB (DiNitroChlorobenzene) were topically applied onto a 1 cm^2 nylon disc to Episkin™ in 12 well inserts. The lower chamber consisted of Mutz3-LCs at a density of 250,000 cells/ml. Forty eight (48) hrs post sensitization, cells were resuspended in 1 ml fresh maturation media, supernatants were collected for subsequent analysis and cell count was performed. […]

For series [2] the following is noted: stated as known property of the chemical; cited from earlier work.

Take `O=C(O)c1ccccc1O`: in series [1], the “cytokine profile induced in skin tissues (PCA, FIG. 11)” value is “do not induce distinct cytokine profiles”. Moreover, in series [2], the skin sensitizer class entry is “non-sensitizing irritant”.

On to `CC=Cc1ccc(O)c(OC)c1` [isoeugenol], for which the “cytokine profile induced in skin tissues (PCA, FIG. 11)” value in series [1] is reported as “do not induce distinct cytokine profiles”. Moreover, the skin sensitizer class result in series [2] is recorded as “strong sensitizer”.
